{
  "source": "patent US8691811B2",
  "about": "“Quinazolinone linked pyrrolo[2,1-c][1,4]benzodiazepine hybrids as potential anticancer agents and process for the preparation thereof” (Council of Scientific & Industrial Research, priority 2008, dated 2014)",
  "key": {"[1]": {"system": "sixty human tumour cell lines", "assay": "NCI in vitro cytotoxicity screen (SRB, 48 h), all cell lines", "format": "cell-based", "conditions": "48 h exposure", "description": "(§1) The C8-linked quinazolinone-PBD hybrid (5d) has been tested against sixty human tumour cell lines derived from nine cancer types (leukemia, non-small cell lung cancer, colon cancer, CNS cancer, melanoma, ovarian cancer, renal cancer, prostate cancer and breast cancer) as per NCI protocol. For each compound, dose response curves for individual cell lines have been measured at a minimum of five concentrations at 10 fold dilutions. A protocol of 48 h continuous drug exposure has been used, and a sulforhodamine B (SRB) protein assay was used to estimate cell viability or growth. The concentration for 50% cell growth inhibition (GI50), total cell growth inhibition (TGI, 0% growth) and 50% cell death (LC50, […]) compared with the control has been calculated (Table-1). Compound 5d has been evaluated for their in vitro cytotoxicity in sixty cell lines from nine human cancer types of lung (Hop-62, NCI-H226, NCI-H522), leukemia (K-562, SR), colon (HCT-116, HCT-15, HCC-2998), CNS(SF-539), melanoma (SK-MEL-5, UACC-62, M14), ovarian (IGROV1), renal (A498), prostate (PC3) breast (BT-549, MDA-MB-435, HS578T) origin. The results are expressed as percent of cell growth determined relative to that of untreated control cells (Table 2). The representative compound 5d has shown significant cytotoxicity against some cancer cell lines."}, "[2]": {"system": "Leukemia cell lines", "assay": "NCI cytotoxicity (SRB, 48 h), leukemia panel", "format": "cell-based, human", "conditions": "Leukemia panel average", "description": "as §1"}, "[3]": {"system": "Non-small cell lung cancer cell lines", "assay": "NCI cytotoxicity (SRB, 48 h), non-small cell lung panel", "format": "cell-based, human", "conditions": "Non-small-cell lung panel average", "description": "as §1"}, "[4]": {"system": "CNS cancer cell lines", "assay": "NCI cytotoxicity (SRB, 48 h), CNS panel", "format": "cell-based, human", "conditions": "CNS panel average", "description": "as §1"}, "[5]": {"system": "Melanoma cell lines", "assay": "NCI cytotoxicity (SRB, 48 h), melanoma panel", "format": "cell-based, human", "conditions": "Melanoma panel average", "description": "as §1"}, "[6]": {"system": "Ovarian cancer cell lines", "assay": "NCI cytotoxicity (SRB, 48 h), ovarian panel", "format": "cell-based, human", "conditions": "Ovarian panel average", "description": "as §1"}, "[7]": {"system": "Prostate cancer cell lines", "assay": "NCI cytotoxicity (SRB, 48 h), prostate panel", "format": "cell-based, human", "conditions": "Prostate panel average", "description": "as §1"}, "[8]": {"system": "Breast cancer cell lines", "assay": "NCI cytotoxicity (SRB, 48 h), breast panel", "format": "cell-based, human", "conditions": "Breast panel average", "description": "as §1"}, "[9]": {"system": "MOLT-4", "assay": "NCI cytotoxicity (SRB, 48 h), MOLT-4", "format": "cell-based, human", "conditions": "MOLT-4, leukemia", "description": "as §1"}, "[10]": {"system": "SR", "assay": "NCI cytotoxicity (SRB, 48 h), SR", "format": "cell-based, human", "conditions": "leukemia", "description": "as §1"}, "[11]": {"system": "A549/ATCC", "assay": "NCI cytotoxicity (SRB, 48 h), A549/ATCC", "format": "cell-based, human", "conditions": "non-small cell lung", "description": "as §1"}, "[12]": {"system": "EKVX", "assay": "NCI cytotoxicity (SRB, 48 h), EKVX", "format": "cell-based, human", "conditions": "non-small cell lung", "description": "as §1"}, "[13]": {"system": "NCI-H23", "assay": "NCI cytotoxicity (SRB, 48 h), NCI-H23", "format": "cell-based, human", "conditions": "NCI-H23, non-small cell lung", "description": "as §1"}, "[14]": {"system": "HCC-2998", "assay": "NCI cytotoxicity (SRB, 48 h), HCC-2998", "format": "cell-based, human", "conditions": "HCC-2998, colon", "description": "as §1"}, "[15]": {"system": "HCT-116", "assay": "NCI cytotoxicity (SRB, 48 h), HCT-116", "format": "cell-based, human", "conditions": "HCT-116, colon", "description": "as §1"}, "[16]": {"system": "SF-268", "assay": "NCI cytotoxicity (SRB, 48 h), SF-268", "format": "cell-based, human", "conditions": "SF-268, CNS", "description": "as §1"}, "[17]": {"system": "SF-539", "assay": "NCI cytotoxicity (SRB, 48 h), SF-539", "format": "cell-based, human", "conditions": "SF-539, CNS", "description": "as §1"}, "[18]": {"system": "SNB-19", "assay": "NCI cytotoxicity (SRB, 48 h), SNB-19", "format": "cell-based, human", "conditions": "SNB-19, CNS", "description": "as §1"}, "[19]": {"system": "SNB-75", "assay": "NCI cytotoxicity (SRB, 48 h), SNB-75", "format": "cell-based, human", "conditions": "SNB-75, CNS", "description": "as §1"}, "[20]": {"system": "LOX IMVI", "assay": "NCI cytotoxicity (SRB, 48 h), LOX IMVI", "format": "cell-based, human", "conditions": "melanoma", "description": "as §1"}, "[21]": {"system": "MALME-3M", "assay": "NCI cytotoxicity (SRB, 48 h), MALME-3M", "format": "cell-based, human", "conditions": "melanoma", "description": "as §1"}, "[22]": {"system": "SK-MEL-2", "assay": "NCI cytotoxicity (SRB, 48 h), SK-MEL-2", "format": "cell-based, human", "conditions": "SK-MEL-2, melanoma", "description": "as §1"}, "[23]": {"system": "SK-MEL-28", "assay": "NCI cytotoxicity (SRB, 48 h), SK-MEL-28", "format": "cell-based, human", "conditions": "SK-MEL-28, melanoma", "description": "as §1"}, "[24]": {"system": "UACC-257", "assay": "NCI cytotoxicity (SRB, 48 h), UACC-257", "format": "cell-based, human", "conditions": "UACC-257, melanoma", "description": "as §1"}, "[25]": {"system": "OVCAR-3", "assay": "NCI cytotoxicity (SRB, 48 h), OVCAR-3", "format": "cell-based, human", "conditions": "OVCAR-3, ovarian", "description": "as §1"}, "[26]": {"system": "OVCAR-4", "assay": "NCI cytotoxicity (SRB, 48 h), OVCAR-4", "format": "cell-based, human", "conditions": "OVCAR-4, ovarian", "description": "as §1"}, "[27]": {"system": "OVCAR-8", "assay": "NCI cytotoxicity (SRB, 48 h), OVCAR-8", "format": "cell-based, human", "conditions": "OVCAR-8, ovarian", "description": "as §1"}, "[28]": {"system": "SK-OV-3", "assay": "NCI cytotoxicity (SRB, 48 h), SK-OV-3", "format": "cell-based, human", "conditions": "SK-OV-3, ovarian", "description": "as §1"}, "[29]": {"system": "786-0", "assay": "NCI cytotoxicity (SRB, 48 h), 786-0", "format": "cell-based, human", "conditions": "786-0, renal", "description": "as §1"}, "[30]": {"system": "CAKI-1", "assay": "NCI cytotoxicity (SRB, 48 h), CAKI-1", "format": "cell-based, human", "conditions": "CAKI-1, renal", "description": "as §1"}, "[31]": {"system": "SN12C", "assay": "NCI cytotoxicity (SRB, 48 h), SN12C", "format": "cell-based, human", "conditions": "renal", "description": "as §1"}, "[32]": {"system": "UO-31", "assay": "NCI cytotoxicity (SRB, 48 h), UO-31", "format": "cell-based, human", "conditions": "UO-31, renal", "description": "as §1"}, "[33]": {"system": "PC-3", "assay": "NCI cytotoxicity (SRB, 48 h), PC-3", "format": "cell-based, human", "conditions": "PC-3, prostate", "description": "as §1"}, "[34]": {"system": "NCI/ADR-RES", "assay": "NCI cytotoxicity (SRB, 48 h), NCI/ADR-RES", "format": "cell-based, human", "conditions": "breast", "description": "as §1"}, "[35]": {"system": "BT-549", "assay": "NCI cytotoxicity (SRB, 48 h), BT-549", "format": "cell-based, human", "conditions": "BT-549, breast", "description": "as §1"}},
  "data": [
    {"smiles": "COc1cc2c(cc1OCCCCCOc1ccc(-n3c(C)nc4ccccc4c3=O)cc1)N=C[C@@H]1CCCN1C2=O", "note": "[5d, 7-methoxy-8-{5-[4-(2-methyl-4-oxo-3,4-dihydro-3-quinazolinyl)phenoxy]pentyloxy-}-(11aS)-1,2,3,11a-tetrahydro-5H-pyrrolo[2,1-c][1,4]benzodiazepine-5-one]", "values": [
      {"measurement": "GI50", "setting": "[1]; bound over all sixty cell lines, read-out: GI50 value against sixty cell lines in nine cell panels", "value": "< 1730", "unit": "nM"},
      {"measurement": "Log10 GI50 mean graph midpoint (MG_MID)", "setting": "[1]; human tumour cell lines", "value": "−6.63"},
      {"measurement": "Log10 LC50 mean graph midpoint (MG_MID)", "setting": "[1]; human tumour cell lines", "value": "−5.21"},
      {"measurement": "Log10 TGI mean graph midpoint (MG_MID)", "setting": "[1]; human tumour cell lines", "value": "−6.15"},
      {"measurement": "Log10 GI50", "setting": "[2]", "value": "−6.85", "unit": "mol/L"},
      {"measurement": "Log10 LC50", "setting": "[2]", "value": "−5.30"},
      {"measurement": "Log10 GI50", "setting": "[3]", "value": "−6.59", "unit": "mol/L"},
      {"measurement": "Log10 LC50", "setting": "[3]", "value": "−5.02"},
      {"measurement": "Log10 GI50", "setting": "[4]", "value": "−6.59", "unit": "mol/L"},
      {"measurement": "Log10 LC50", "setting": "[4]", "value": "−4.88"},
      {"measurement": "Log10 GI50", "setting": "[5]", "value": "−6.65", "unit": "mol/L"},
      {"measurement": "Log10 LC50", "setting": "[5]", "value": "−5.90"},
      {"measurement": "Log10 GI50", "setting": "[6]", "value": "−6.52", "unit": "mol/L"},
      {"measurement": "Log10 LC50", "setting": "[6]", "value": "−4.79"},
      {"measurement": "Log10 GI50", "setting": "[7]", "value": "−6.55", "unit": "mol/L"},
      {"measurement": "Log10 LC50", "setting": "[7]", "value": "−5.19"},
      {"measurement": "Log10 GI50", "setting": "[8]", "value": "−6.66", "unit": "mol/L"},
      {"measurement": "Log10 LC50", "setting": "[8]", "value": "−4.90"},
      {"measurement": "GI50", "setting": "[9]", "value": 190, "unit": "nM"},
      {"measurement": "GI50", "setting": "[10]", "value": 110, "unit": "nM"},
      {"measurement": "GI50", "setting": "[11]", "value": 230, "unit": "nM"},
      {"measurement": "GI50", "setting": "[12]", "value": 870, "unit": "nM"},
      {"measurement": "GI50", "setting": "[13]", "value": 230, "unit": "nM"},
      {"measurement": "GI50", "setting": "[14]", "value": 260, "unit": "nM"},
      {"measurement": "GI50", "setting": "[15]", "value": 150, "unit": "nM"},
      {"measurement": "GI50", "setting": "[16]", "value": 260, "unit": "nM"},
      {"measurement": "GI50", "setting": "[17]", "value": 220, "unit": "nM"},
      {"measurement": "GI50", "setting": "[18]", "value": 280, "unit": "nM"},
      {"measurement": "GI50", "setting": "[19]", "value": 380, "unit": "nM"},
      {"measurement": "GI50", "setting": "[20]", "value": 150, "unit": "nM"},
      {"measurement": "GI50", "setting": "[21]", "value": 230, "unit": "nM"},
      {"measurement": "GI50", "setting": "[22]", "value": 420, "unit": "nM"},
      {"measurement": "GI50", "setting": "[23]", "value": 200, "unit": "nM"},
      {"measurement": "GI50", "setting": "[24]", "value": 390, "unit": "nM"},
      {"measurement": "GI50", "setting": "[25]", "value": 200, "unit": "nM"},
      {"measurement": "GI50", "setting": "[26]", "value": 370, "unit": "nM"},
      {"measurement": "GI50", "setting": "[27]", "value": 340, "unit": "nM"},
      {"measurement": "GI50", "setting": "[28]", "value": 430, "unit": "nM"},
      {"measurement": "GI50", "setting": "[29]", "value": 170, "unit": "nM"},
      {"measurement": "GI50", "setting": "[30]", "value": 190, "unit": "nM"},
      {"measurement": "GI50", "setting": "[31]", "value": 240, "unit": "nM"},
      {"measurement": "GI50", "setting": "[32]", "value": 360, "unit": "nM"},
      {"measurement": "GI50", "setting": "[33]", "value": 290, "unit": "nM"},
      {"measurement": "GI50", "setting": "[34]", "value": 1730, "unit": "nM"},
      {"measurement": "GI50", "setting": "[35]", "value": 110, "unit": "nM"}
    ]}
  ]
}
